Data on eleven molecules can be found in US11168073B2, “3,3-difluoroallylamines or salts thereof and pharmaceutical compositions comprising the same” (YUHAN CORPORATION, priority 2018, dated 2021).

Broadly, the IC50 is the midpoint of a concentration-inhibition curve.

Common to all, as to assay type: biochemical
For one experiment, the target named is T1, recombinant human VAP-1 (Homo sapiens, UniProt Q16853).
T1 construct: purchased R&D systems
T1 sequence (Q16853 1-763): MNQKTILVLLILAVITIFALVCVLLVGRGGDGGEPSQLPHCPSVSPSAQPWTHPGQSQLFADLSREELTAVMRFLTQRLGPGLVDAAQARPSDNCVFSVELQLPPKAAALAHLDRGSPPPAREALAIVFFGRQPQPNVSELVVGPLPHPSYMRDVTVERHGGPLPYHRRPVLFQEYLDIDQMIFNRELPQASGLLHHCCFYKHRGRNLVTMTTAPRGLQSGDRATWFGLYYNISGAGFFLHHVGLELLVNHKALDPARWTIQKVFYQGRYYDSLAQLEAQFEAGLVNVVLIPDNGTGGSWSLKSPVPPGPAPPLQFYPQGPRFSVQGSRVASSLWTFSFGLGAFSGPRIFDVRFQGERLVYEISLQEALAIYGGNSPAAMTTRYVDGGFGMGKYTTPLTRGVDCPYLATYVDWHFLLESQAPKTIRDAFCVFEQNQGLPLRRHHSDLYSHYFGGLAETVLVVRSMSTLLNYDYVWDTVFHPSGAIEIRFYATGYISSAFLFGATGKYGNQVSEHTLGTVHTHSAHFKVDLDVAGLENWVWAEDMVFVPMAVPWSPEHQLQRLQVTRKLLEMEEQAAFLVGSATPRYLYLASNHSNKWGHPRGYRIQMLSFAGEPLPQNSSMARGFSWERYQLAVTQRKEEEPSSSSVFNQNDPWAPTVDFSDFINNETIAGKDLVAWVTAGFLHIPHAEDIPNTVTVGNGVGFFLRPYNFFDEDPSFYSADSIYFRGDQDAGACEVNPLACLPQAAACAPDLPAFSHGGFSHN
The experiment is described as follows: Activity evaluation on recombinant human VAP-1 (Amplex Red/HRP-coupled hydrogen peroxide assay, benzylamine substrate). To be noted: read-out: Inhibitory Activity (IC50, nM) human VAP-1. Put shortly: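 Hydrogen peroxide from benzylamine (1 mM) oxidation by human recombinant VAP-1 detected via HRP-coupled Amplex Red (200 uM) fluorescence, kinetic over 1–2 h. Enzyme and compound preincubated 30 min at 37 °C, pH 7.4 phosphate; 8-point dose response, signal-rate decrease versus DMSO control fitted to four-parameter logistic for IC50.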

The target of experiment [1] is T2, recombinant human MAO-A (monoamine oxidase-A) (Homo sapiens, UniProt P21397).
T2 construct: purchased Sigma-Aldrich
T2 sequence (P21397 1-527): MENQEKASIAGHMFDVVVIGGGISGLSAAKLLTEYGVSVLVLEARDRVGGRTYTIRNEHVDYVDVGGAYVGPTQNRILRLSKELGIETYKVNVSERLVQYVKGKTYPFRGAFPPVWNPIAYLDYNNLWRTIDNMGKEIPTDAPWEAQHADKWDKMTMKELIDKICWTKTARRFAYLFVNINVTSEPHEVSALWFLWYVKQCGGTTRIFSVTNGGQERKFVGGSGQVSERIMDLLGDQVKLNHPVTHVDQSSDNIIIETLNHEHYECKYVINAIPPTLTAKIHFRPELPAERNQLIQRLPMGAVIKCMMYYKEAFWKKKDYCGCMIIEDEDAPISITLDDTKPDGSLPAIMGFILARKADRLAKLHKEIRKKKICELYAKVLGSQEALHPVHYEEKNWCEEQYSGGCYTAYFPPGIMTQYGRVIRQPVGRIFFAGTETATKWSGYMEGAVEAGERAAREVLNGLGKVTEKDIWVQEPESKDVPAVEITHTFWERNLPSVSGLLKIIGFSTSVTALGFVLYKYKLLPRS
The experiment is described as follows: Activity evaluation on recombinant human MAO-A (Amplex Red/HRP-coupled assay, 0.5 mM tyramine substrate). To be noted: read-out: Inhibitory Activity (IC50, nM) MAO-A. In a few lines:
(§1)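 8-pt 1:3 dilution series, final DMSO <1%; 30 min 37 °C preincubation w/ enzyme, 50 mM Na phosphate pH 7.4; + 200 uM Amplex Red, 1 U/mL HRP, substrate (MAO-A tyramine 0.5 mM; MAO-B benzylamine 1 mM; DAO putrescine 1 mM); fluor. rate 544/590 nm, 1-2 h; 4-param IC50.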

For experiment [2], the target named is T3, recombinant human MAO-B (monoamine oxidase-B) (Homo sapiens, UniProt P27338).
T3 construct: purchased Sigma-Aldrich
T3 sequence (P27338 1-520): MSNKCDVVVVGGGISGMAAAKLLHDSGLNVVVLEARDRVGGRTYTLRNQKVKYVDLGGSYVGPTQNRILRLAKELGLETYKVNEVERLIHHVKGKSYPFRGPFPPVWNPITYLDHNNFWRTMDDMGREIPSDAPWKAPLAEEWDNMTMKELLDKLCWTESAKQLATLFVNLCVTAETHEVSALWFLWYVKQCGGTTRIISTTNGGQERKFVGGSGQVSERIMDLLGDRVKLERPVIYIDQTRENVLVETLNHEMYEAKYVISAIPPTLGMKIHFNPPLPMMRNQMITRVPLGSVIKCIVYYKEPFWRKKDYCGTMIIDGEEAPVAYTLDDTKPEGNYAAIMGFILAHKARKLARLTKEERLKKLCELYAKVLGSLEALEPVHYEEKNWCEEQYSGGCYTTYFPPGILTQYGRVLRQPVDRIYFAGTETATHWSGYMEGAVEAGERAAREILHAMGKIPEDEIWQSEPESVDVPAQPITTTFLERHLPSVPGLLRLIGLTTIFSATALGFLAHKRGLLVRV
The experiment is described as follows: Activity evaluation on recombinant human MAO-B (Amplex Red/HRP-coupled assay, 1 mM benzylamine substrate). Particulars: read-out: Inhibitory Activity (IC50, nM) MAO-B. Put shortly: as §1

Experiment [3] deals with T4, recombinant human DAO (diamine oxidase) (Homo sapiens, UniProt P19801).
T4 construct: purchased R&D systems
T4 sequence (P19801 20-751): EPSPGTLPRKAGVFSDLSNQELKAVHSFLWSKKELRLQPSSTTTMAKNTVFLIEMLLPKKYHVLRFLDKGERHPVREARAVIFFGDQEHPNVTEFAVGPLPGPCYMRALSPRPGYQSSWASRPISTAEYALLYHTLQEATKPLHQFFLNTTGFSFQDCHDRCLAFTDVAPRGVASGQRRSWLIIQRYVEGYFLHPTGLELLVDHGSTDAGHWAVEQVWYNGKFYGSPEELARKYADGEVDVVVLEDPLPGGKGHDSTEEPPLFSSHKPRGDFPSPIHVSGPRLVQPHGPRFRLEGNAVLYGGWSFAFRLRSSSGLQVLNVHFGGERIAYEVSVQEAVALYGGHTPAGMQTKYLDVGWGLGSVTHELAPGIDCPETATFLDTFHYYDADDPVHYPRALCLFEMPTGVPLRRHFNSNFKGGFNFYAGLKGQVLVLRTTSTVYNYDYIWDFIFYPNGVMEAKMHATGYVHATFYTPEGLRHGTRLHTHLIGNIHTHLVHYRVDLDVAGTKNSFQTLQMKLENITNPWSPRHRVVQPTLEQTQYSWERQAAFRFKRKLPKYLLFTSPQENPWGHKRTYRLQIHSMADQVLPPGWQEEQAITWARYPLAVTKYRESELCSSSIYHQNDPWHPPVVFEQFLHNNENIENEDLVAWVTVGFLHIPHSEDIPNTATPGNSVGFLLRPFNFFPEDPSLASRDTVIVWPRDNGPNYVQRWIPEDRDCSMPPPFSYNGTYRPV
Description: Activity evaluation on recombinant human DAO (Amplex Red/HRP-coupled assay, 1 mM putrescine substrate). Particulars: read-out: Inhibitory Activity (IC50, nM) DAO. In a few lines: as §1

Setting [4] is: recombinant human VAP-1, 30 min preincubation at 37° C., 1 mM benzylamine.
Where [5] appears, read: recombinant human VAP-1, benzylamine substrate.

Where a name gives a salt, the structure may show the parent alone. Read-outs that look alike come from different tables or passages of the source.

In the case of `NCC(Cn1ncn(-c2ccc(-c3ccc(C(F)(F)F)nc3)nc2)c1=O)=C(F)F` [Example 40, 2-[2-(aminomethyl)-3,3-difluoro-allyl]-4-[6-[6-(trifluoromethyl)-3-pyridyl]-3-pyridyl]-1,2,4-triazol-3-one Trifluoroacetate], the half-maximal inhibitory concentration (IC50) at recombinant human VAP-1 (setting [4]) is 0.3 nM; in experiment [1] (0.5 mM tyramine), over 100000 nM; in experiment [2] (1 mM benzylamine) it was 200 nM; in experiment [3] (1 mM putrescine), 12 nM.

Regarding `NCC(Cn1ncn(Cc2ccc(C#Cc3cnc4c(c3)OCC(=O)N4)s2)c1=O)=C(F)F` [Example 170, 7-[2-[5-[[1-[2-(aminomethyl)-3,3-difluoro-allyl]-5-oxo-1,2,4-triazol-4-yl]methyl]-2-thienyl]ethynyl]-4H-pyrido[3,2-b][1,4]oxazin-3-one Trifluoroacetate], the half-maximal inhibitory concentration (IC50) at recombinant human VAP-1 (setting [4]) is 0.8 nM; in experiment [1] (0.5 mM tyramine), over 100000 nM; in experiment [2] (1 mM benzylamine) it was 14000 nM; in experiment [3] (1 mM putrescine), over 10000 nM.

Consider `NCC(Cn1ncn(Cc2ccc(-c3ccc4nonc4c3)s2)c1=O)=C(F)F` [Example 129, 2-[2-(aminomethyl)-3,3-difluoro-allyl]-4-[[5-(2,1,3-benzoxadiazol-5-yl)-2-thienyl]methyl]-1,2,4-triazol-3-one Trifluoroacetate], for which the IC50 was 0.7 nM on recombinant human VAP-1 (setting [4]), over 100000 nM in experiment [1] (0.5 mM tyramine), 311 nM in experiment [2] (1 mM benzylamine) and 21000 nM in experiment [3] (1 mM putrescine).

With `CCn1cc(-c2cc(C)c(Cn3cnn(CC(CN)=C(F)F)c3=O)s2)cn1` [Example 159, 2-[2-(aminomethyl)-3,3-difluoro-allyl]-4-[[5-(1-ethylpyrazol-4-yl)-3-methyl-2-thienyl]methyl]-1,2,4-triazol-3-one Trifluoroacetate], the half-inhibitory concentration (IC50) at recombinant human VAP-1 (setting [4]) is 5.2 nM; in experiment [1] (0.5 mM tyramine), over 100000 nM; in experiment [2] (1 mM benzylamine), over 100000 nM; in experiment [3] (1 mM putrescine), 52000 nM.

Consider `Cc1cc(-c2cccc(-n3cnn(CC(CN)=C(F)F)c3=O)c2C)cc2c1NC(=O)CC2` [Example 258, 6-[3-[1-[2-(aminomethyl)-3,3-difluoro-allyl]-5-oxo-1,2,4-triazol-4-yl]-2-methyl-phenyl]-8-methyl-3,4-dihydro-1H-quinolin-2-one Trifluoroacetate], for which the IC50 at recombinant human VAP-1 (setting [5]) is 2.5 nM; in experiment [1] (0.5 mM tyramine substrate), over 100000 nM; in experiment [2] (1 mM benzylamine substrate) it was over 100000 nM; in experiment [3] (1 mM putrescine substrate) it was over 100000 nM.

`NCC(Cn1ncn(-c2ccc(-c3ccc4c(c3)OCO4)cc2F)c1=O)=C(F)F` [Example 35, 2-[2-(aminomethyl)-3,3-difluoro-allyl]-4-[4-(1,3-benzodioxol-5-yl)-2-fluoro-phenyl]-1,2,4-triazol-3-one Trifluoroacetate]: the IC50 is 0.3 nM on recombinant human VAP-1 (setting [4]), over 100000 nM in experiment [1] (0.5 mM tyramine), 33 nM in experiment [2] (1 mM benzylamine) and 540 nM in experiment [3] (1 mM putrescine).

In the case of `NCC(Cn1ncn(-c2cccc(-c3ccc4c(c3)OCO4)c2)c1=O)=C(F)F` [Example 21, 2-[2-(aminomethyl)-3,3-difluoro-allyl]-4-[3-(1,3-benzodioxol-5-yl)phenyl]-1,2,4-triazol-3-one Trifluoroacetate], the 50% inhibitory concentration (IC50) at recombinant human VAP-1 (setting [4]) was determined as 2.5 nM; in experiment [1] (0.5 mM tyramine), 36200 nM; in experiment [2] (1 mM benzylamine) it was 18000 nM; in experiment [3] (1 mM putrescine) it was 6300 nM.

As for `CCn1cc(-c2ccc(-n3cnn(CC(CN)=C(F)F)c3=O)cc2F)cn1` [Example 30, 2-[2-(aminomethyl)-3,3-difluoro-allyl]-4-[4-(1-ethylpyrazol-4-yl)-3-fluoro-phenyl]-1,2,4-triazol-3-one Trifluoroacetate], the IC50 at recombinant human VAP-1 (setting [4]) was 0.6 nM; in experiment [1] (0.5 mM tyramine) it was over 100000 nM; in experiment [2] (1 mM benzylamine) it was 300 nM; in experiment [3] (1 mM putrescine) it was 890 nM.

Consider `Cc1cc(-c2ccc(C(F)(F)F)nc2)sc1Cn1cnn(CC(CN)=C(F)F)c1=O` [Example 156, 2-[2-(aminomethyl)-3,3-difluoro-allyl]-4-[[3-methyl-5-[6-(trifluoromethyl)-3-pyridyl]-2-thienyl]methyl]-1,2,4-triazol-3-one Trifluoroacetate], for which the IC50 was 3.2 nM at recombinant human VAP-1 (setting [4]), over 100000 nM in experiment [1] (0.5 mM tyramine), 17000 nM in experiment [2] (1 mM benzylamine) and 9100 nM in experiment [3] (1 mM putrescine).

In the case of `CN1Cc2cc(-c3csc(Cn4cnn(CC(CN)=C(F)F)c4=O)c3)ccc2NC1=O` [Example 186, 6-[5-[[1-[2-(aminomethyl)-3,3-difluoro-allyl]-5-oxo-1,2,4-triazol-4-yl]methyl]-3-thienyl]-3-methyl-1,4-dihydroquinazolin-2-one Trifluoroacetate], the IC50 at recombinant human VAP-1 (setting [5]) is 0.5 nM; in experiment [1] (0.5 mM tyramine substrate) it was over 100000 nM; in experiment [2] (1 mM benzylamine substrate) it was over 100000 nM; in experiment [3] (1 mM putrescine substrate), 25000 nM.

As for `COc1cc(-c2cnc(-n3cnn(CC(CN)=C(F)F)c3=O)c(C)c2)cc(OC)c1OC` [Example 224, 2-[2-(aminomethyl)-3,3-difluoro-allyl]-4-[3-methyl-5-(3,4,5-trimethoxyphenyl)-2-pyridyl]-1,2,4-triazol-3-one Trifluoroacetate], the half-inhibitory concentration (IC50) at recombinant human VAP-1 (setting [5]) is 0.8 nM; in experiment [1] (0.5 mM tyramine substrate), over 100000 nM; in experiment [2] (1 mM benzylamine substrate) it was 1900 nM; in experiment [3] (1 mM putrescine substrate), 5500 nM.
